Test results as given in ChEMBL document CHEMBL3885861, “Open TG-GATES”.

Species: Rattus norvegicus
Experiment: Open TG-GATES - Regimen: Single
Format: toxicity, organism-based, Sprague-Dawley
Parameters: regimen Single, gender Male, age 6 weeks
Conditions: in vivo, sc, 0.02 mg/kg, route subcutaneous injection, dose 20 ug/Kg, dose level Low; for APTT / Bas / Eos / Fbg / Hb / Ht / Lym / MCH / MCHC / MCV / Mono / Neu / PT / Plat / RBC / Ret / WBC: tissue Blood; for KIDNEY_L / KIDNEY_R / KIDNEY_TOTAL: tissue Kidney; for LIVER: tissue Liver; for A/G / ALP / ALT / AST / BUN / CRE / Ca / Cl / DBIL / GLC / IP / K / LDH / Na / PL / RALB / TBIL / TC / TG / TP / gamma-GTP: tissue Plasma

Compound CC(=O)O.N=C(N)NCCC[C@@H](NC(=O)[C@@H]1CCCN1C(=O)[C@@H]1CSSCCC(=O)N[C@@H](Cc2ccc(O)cc2)C(=O)N[C@@H](Cc2ccccc2)C(=O)N[C@@H](CCC(N)=O)C(=O)N[C@@H](CC(N)=O)C(=O)N1)C(=O)NCC(N)=O [DESMOPRESSIN ACETATE] has a TERMINAL_BW (3 h) of 210.4 g, an APTT (3 h) of 17.8 s and a Bas (3 h) of 0%. The Eos (3 h) was 1%, the Fbg (3 h) was 236 mg/dL and the Hb (3 h) was 12.9 g/dL. The Ht (3 h) was 39.5%, the Lym (3 h) was 71.4% and the MCH (3 h) was 22.1 pg. For the same compound, the MCHC (3 h) was 32.7%, the MCV (3 h) was 67.5 fL and the Mono (3 h) was 8.6%. It also gave a Neu (3 h) of 18.6%, a PT (3 h) of 12.3 s and a Plat (3 h) of 120.4 x10_4/uL. It also gave an RBC (3 h) of 586 x10_4/ul, a Ret (3 h) of 9.1% and a WBC (3 h) of 90.2 x10_2/uL. It also gave a KIDNEY_L (3 h) of 1 g, a KIDNEY_R (3 h) of 1 g and a KIDNEY_TOTAL (3 h) of 1.9 g. For the same compound, the LIVER (3 h) was 10 g, the A/G (3 h) was 2 and the ALP (3 h) was 1379 IU/L. For the same compound, the ALT (3 h) was 39.2 IU/L, the AST (3 h) was 68.8 IU/L and the BUN (3 h) was 21.2 mg/dL. For the same compound, the CRE (3 h) was 0.3 mg/dL, the Ca (3 h) was 11.1 mg/dL and the Cl (3 h) was 102.8 meq/L. It also gave a DBIL (3 h) of 0.01 mg/dL, a GLC (3 h) of 194.4 mg/dL and an IP (3 h) of 9.9 mg/dL. It also gave a K (3 h) of 4.5 meq/L, an LDH (3 h) of 123.8 IU/L and a Na (3 h) of 135.4 meq/L. It also gave a PL (3 h) of 142 mg/dL, an RALB (3 h) of 3.6 g/dL and a TBIL (3 h) of 0.05 mg/dL. The TC (3 h) was 81.8 mg/dL, the TG (3 h) was 64.4 mg/dL and the TP (3 h) was 5.4 g/dL. For the same compound, the gamma-GTP (3 h) was 1 IU/L, the TERMINAL_BW (6 h) was 202.1 g and the APTT (6 h) was 17.3 s. It also gave a Bas (6 h) of 0%, an Eos (6 h) of 1% and a Fbg (6 h) of 232.8 mg/dL. It also gave a Hb (6 h) of 12.9 g/dL, a Ht (6 h) of 39.6% and a Lym (6 h) of 77.8%. The MCH (6 h) was 21.5 pg, the MCHC (6 h) was 32.6% and the MCV (6 h) was 66.1 fL. The Mono (6 h) was 8%, the Neu (6 h) was 13.2% and the PT (6 h) was 12.7 s. For the same compound, the Plat (6 h) was 116.8 x10_4/uL, the RBC (6 h) was 598.6 x10_4/ul and the Ret (6 h) was 9.1%. The WBC (6 h) was 105.6 x10_2/uL, the KIDNEY_L (6 h) was 1 g and the KIDNEY_R (6 h) was 1 g. For the same compound, the KIDNEY_TOTAL (6 h) was 2 g, the LIVER (6 h) was 9.1 g and the A/G (6 h) was 1.9. For the same compound, the ALP (6 h) was 1160 IU/L, the ALT (6 h) was 31.2 IU/L and the AST (6 h) was 60 IU/L. It also gave a BUN (6 h) of 25.4 mg/dL, a CRE (6 h) of 0.3 mg/dL and a Ca (6 h) of 10.8 mg/dL. For the same compound, the Cl (6 h) was 103.6 meq/L, the DBIL (6 h) was 0.014 mg/dL and the GLC (6 h) was 199 mg/dL. For the same compound, the IP (6 h) was 9.6 mg/dL, the K (6 h) was 4.8 meq/L and the LDH (6 h) was 109.4 IU/L. The Na (6 h) was 135 meq/L, the PL (6 h) was 142.8 mg/dL and the RALB (6 h) was 3.5 g/dL. For the same compound, the TBIL (6 h) was 0.074 mg/dL, the TC (6 h) was 85 mg/dL and the TG (6 h) was 62.4 mg/dL. For the same compound, the TP (6 h) was 5.3 g/dL, the gamma-GTP (6 h) was 1 IU/L and the TERMINAL_BW (9 h) was 202.1 g. For the same compound, the APTT (9 h) was 16.9 s, the Bas (9 h) was 0% and the Eos (9 h) was 1.4%. It also gave a Fbg (9 h) of 229 mg/dL, a Hb (9 h) of 13 g/dL and a Ht (9 h) of 40.1%. It also gave a Lym (9 h) of 72%, an MCH (9 h) of 21.8 pg and an MCHC (9 h) of 32.6%. It also gave an MCV (9 h) of 67.1 fL, a Mono (9 h) of 8.4% and a Neu (9 h) of 18.4%. The PT (9 h) was 12.8 s, the Plat (9 h) was 118 x10_4/uL and the RBC (9 h) was 598.2 x10_4/ul. The Ret (9 h) was 9.3%, the WBC (9 h) was 94.6 x10_2/uL and the KIDNEY_L (9 h) was 1 g. For the same compound, the KIDNEY_R (9 h) was 0.9 g, the KIDNEY_TOTAL (9 h) was 1.9 g and the LIVER (9 h) was 8.7 g. For the same compound, the A/G (9 h) was 2.2, the ALP (9 h) was 1148.8 IU/L and the ALT (9 h) was 32.2 IU/L. For the same compound, the AST (9 h) was 62.6 IU/L, the BUN (9 h) was 24.4 mg/dL and the CRE (9 h) was 0.3 mg/dL. For the same compound, the Ca (9 h) was 11 mg/dL, the Cl (9 h) was 103.8 meq/L and the DBIL (9 h) was 0.016 mg/dL. For the same compound, the GLC (9 h) was 198.4 mg/dL, the IP (9 h) was 10.6 mg/dL and the K (9 h) was 5.1 meq/L. The LDH (9 h) was 143.8 IU/L, the Na (9 h) was 136.4 meq/L and the PL (9 h) was 136.6 mg/dL. For the same compound, the RALB (9 h) was 3.6 g/dL, the TBIL (9 h) was 0.056 mg/dL and the TC (9 h) was 78.2 mg/dL. It also gave a TG (9 h) of 47.6 mg/dL, a TP (9 h) of 5.3 g/dL and a gamma-GTP (9 h) of 0.4 IU/L. For the same compound, the TERMINAL_BW (24 h) was 220.6 g, the APTT (24 h) was 16.9 s and the Bas (24 h) was 0%. For the same compound, the Eos (24 h) was 1%, the Fbg (24 h) was 245.2 mg/dL and the Hb (24 h) was 12.8 g/dL. For the same compound, the Ht (24 h) was 39.6%, the Lym (24 h) was 74% and the MCH (24 h) was 21.3 pg. The MCHC (24 h) was 32.4%, the MCV (24 h) was 65.9 fL and the Mono (24 h) was 7.8%. For the same compound, the Neu (24 h) was 17.2%, the PT (24 h) was 12.1 s and the Plat (24 h) was 134.8 x10_4/uL. It also gave an RBC (24 h) of 601 x10_4/ul, a Ret (24 h) of 10.2% and a WBC (24 h) of 109.6 x10_2/uL. For the same compound, the KIDNEY_L (24 h) was 1 g, the KIDNEY_R (24 h) was 1 g and the KIDNEY_TOTAL (24 h) was 1.9 g. The LIVER (24 h) was 10.3 g, the A/G (24 h) was 2 and the ALP (24 h) was 1595.4 IU/L. The ALT (24 h) was 35 IU/L, the AST (24 h) was 63.8 IU/L and the BUN (24 h) was 15 mg/dL. It also gave a CRE (24 h) of 0.4 mg/dL, a Ca (24 h) of 11.3 mg/dL and a Cl (24 h) of 104.8 meq/L. For the same compound, the DBIL (24 h) was 0 mg/dL, the GLC (24 h) was 193.2 mg/dL and the IP (24 h) was 7.8 mg/dL. The K (24 h) was 5.2 meq/L, the LDH (24 h) was 137 IU/L and the Na (24 h) was 137.8 meq/L. For the same compound, the PL (24 h) was 152.8 mg/dL, the RALB (24 h) was 3.7 g/dL and the TBIL (24 h) was 0.022 mg/dL. For the same compound, the TC (24 h) was 83.8 mg/dL, the TG (24 h) was 98.6 mg/dL and the TP (24 h) was 5.5 g/dL. The gamma-GTP (24 h) was 1.2 IU/L.
